Structures are written as SMILES. Where a SMILES comes first, the peptide text is derived from it.

The nature of the series: GHS categories as the set defines them, by LD50: 1 up to 5, 2 up to 50, 3 up to 300, 4 up to 2000, 5 above 2000 mg/kg. To be noted: rat; in vivo; po.

Molecule `Cc1c(C)c2c(c(C)c1O)CCC(C)(COc1ccc(CC3SC(=O)NC3=O)cc1)O2` (configuration not stated) registered a GHS category of 5. The figure for `CC1(C)S[C@@H]2[C@H](NC(=O)COc3ccccc3)C(=O)N2[C@H]1C(=O)O` is 4; for `O=Cc1c(O)ccc2ccccc12` it is 5; for `O=C1c2ccccc2C(=O)N1CC1=Nc2ccccc2Cc2ccccc21` it is 5. As to `CNC(=O)C(=NNc1ccc(Cl)cc1[N+](=O)[O-])C(C)=O`, the GHS category is 5. As for `CC(C)C[C@H](NC(=O)[C@@H](Cc1ccc2ccccc2c1)NC(=O)[C@H](Cc1ccc(O)cc1)NC(=O)[C@H](CO)NC(=O)[C@H](Cc1c[nH]c2ccccc12)NC(=O)[C@H](Cc1cnc[nH]1)NC(=O)[C@@H]1CCC(=O)N1)C(=O)N[C@@H](CCCN=C(N)N)C(=O)N1CCC[C@H]1C(=O)NCC(N)=O`, the figure is 3. `CN1C(CCl)Nc2cc(Cl)c(S(N)(=O)=O)cc2S1(=O)=O` (configuration not stated) returned a GHS category of 5. Turning to `CO[C@H]1C[C@H](O[C@H]2[C@H](C)[C@@H](O[C@@H]3O[C@H](C)C[C@H](N(C)C)[C@H]3O)[C@H](C)C[C@@]3(CO3)C(=O)[C@H](C)[C@@H](O)[C@@H](C)[C@@H](C)OC(=O)[C@@H]2C)O[C@@H](C)[C@@H]1O`, the GHS category is recorded as 5.

As to `C=C(C#N)C(=O)OCCOC`, the GHS category was 5.

Consider `CCC=CCC=CCC=CCC=CCC=CCCCCCC(=O)O`, for which the GHS category is 5. The figure for `CC(C)=CCC/C(C)=C/C(=O)OCCC(C)C` is 5. As for `Cc1cccc(OC(=O)c2ccc(Cl)cc2OC(N)=O)c1`, the figure is 5; as for `CCOC(=O)CP(=O)(OCC)OCC`, 5; as for `CCCC(=NOCC(C)Oc1ccc(Cl)cc1)C1=C(O)CC(C2CCCSC2)CC1=O` (configuration not stated), 5. The figure for `CCCCCOC(=O)CC` is 5; for `O=C1NC(=O)C(c2ccccc2)(c2ccc(O)cc2)N1` (configuration not stated) it is 5. In turn, `CC(=O)OCCC(C)CCCC(C)C` (configuration not stated) gave a GHS category of 5. The figure for `C1C2CC3CC1CC(C2)C3` is 5; for `CCCCC(CC)COC(=O)c1ccc(Nc2nc(Nc3ccc(C(=O)NC(C)(C)C)cc3)nc(Nc3ccc(C(=O)OCC(CC)CCCC)cc3)n2)cc1` (configuration not stated) it is 5.

The molecule `CN(c1ccccc1)S(=O)(=O)c1cc(O)c2c(N=Nc3ccc(NC(=O)CCl)cc3S(=O)(=O)O)c(N)ccc2c1` gave a GHS category of 5. The figure for `C=C(C)C(=O)OCCOCCOCCOCC` is 5; for `COc1cc(C(=O)OCCCNCCC(c2ccccc2)c2ccccc2)cc(OC)c1OC` it is 5. The figure for `COC(=O)c1cc(F)ccc1[N+](=O)[O-]` is 5; for `O=S(=O)(O)c1cccc(Nc2nc(NCCO)nc(Nc3ccc(/C=C/c4ccc(Nc5nc(NCCO)nc(Nc6cccc(S(=O)(=O)O)c6)n5)cc4S(=O)(=O)O)c(S(=O)(=O)O)c3)n2)c1` it is 5; for `OC(Cn1ccnc1)c1ccc(CCc2ccccc2)cc1` (configuration not stated) it is 5. Turning to `CCCCCCCCCCCC1CC(O)=C(CCCCCC)C(=O)O1` (configuration not stated), the GHS category stood at 5. As for `CCCOc1nn(C(=O)NS(=O)(=O)c2ccccc2C(=O)OC)c(=O)n1C`, the figure is 5. As for `CCCCCCCC/C=C\CCCCCCCC#N`, the figure is 5; as for `COc1ccccc1N=Nc1c(O)ccc2ccccc12`, 5; as for `C=CC(C)(CCC=C(C)C)OC(C)OCC` (configuration not stated), 5.

`Brc1ccc(CNC2=NCCS2)cc1` returned a GHS category of 3. The figure for `CCCc1c(Cc2ccc(-c3ccccc3-c3nn[nH]n3)cc2)cnc2ncnn12` is 4; for `CC(=O)S[C@H]1CC(=O)C=C2C[C@@H](SC(C)=O)[C@@H]3[C@H](CC[C@@]4(C)[C@H]3CC[C@]4(C)O)[C@]21C` it is 5; for `O=S(=O)(O)OC1C(OS(=O)(=O)O)C(OS(=O)(=O)O)C(OS(=O)(=O)O)C(OS(=O)(=O)O)C1OS(=O)(=O)O` (configuration not stated) it is 5. The molecule `CCOC(=O)C1(C)OC(=O)N(c2cc(Cl)cc(Cl)c2)C1=O` (configuration not stated) came in with a GHS category of 5. In turn, `CCC(C)(Oc1ccc(Cl)cc1)C(=O)OC1CC(C)CC(C)(C)C1` (configuration not stated) returned a GHS category of 5. The figure for `O=C1CCc2c(OCC(O)CN3CCC(Cc4ccccc4)CC3)ccc(Br)c2N1` (configuration not stated) is 4; for `O=C(Nc1ccc(Cl)cc1)c1ccccc1` it is 4; for `CC(=O)S[C@@H]1CC2=CC(=O)CC[C@]2(C)[C@H]2CC[C@@]3(C)[C@@H](CC[C@@]34CCC(=O)O4)[C@H]12` it is 4. In the case of `OC[C@H]1CO[C@@](Cn2cncn2)(c2cc3ccccc3o2)O1`, the GHS category was 4.

For the molecule `CCCCCCOC=O`, the GHS category was 5. As for `C=C(C)COCC/C=C\CC`, the figure is 5; as for `CC1=C(NC(=O)O)/C(=N/C(=O)CN)C=CC1(NC(=O)O)c1cccc(C2=CC=C/C(=N\C(=O)CN)C2C)c1` (configuration not stated), 5; as for `COCCOC(=O)C(=O)Nc1nc(-c2ccccc2)cs1`, 5.

For the molecule `N#CCCNCCCCCCNCCC#N`, the GHS category is recorded as 5. As for `COc1cc2nc(N3CCC(CN(C)C(=O)c4ccco4)CC3)nc(N)c2cc1OC`, the figure is 4; as for `COc1ncc(F)c2nc(S(=O)(=O)Nc3c(F)cccc3F)nn12`, 5. The figure for `CN1C(C(=O)Nc2ccccc2)=C(O)c2ccccc2S1(=O)=O` is 5. `O=c1c2cc(Oc3ccc(Cl)cc3)ccc2nnn1Cc1cccnc1` yielded a GHS category of 5.

As for `Clc1ccc(C2=NCOCS2)cc1`, the GHS category was 4.

Take `CCCCCCCCCCCCCCCC(=O)OC[C@H](O)[C@H]1OC(=O)C(O)=C1O`: the GHS category was determined as 5. The molecule `Brc1cnc2[nH]ccc2c1` yielded a GHS category of 5. As for `C[N@+]1(CCNP(=S)(NCC[N@@+]2(C)Cc3c(ccc4c3OCO4)[C@@H]3[C@H]2c2cc4c(cc2C[C@@H]3O)OCO4)NCC[N@@+]2(C)Cc3c(ccc4c3OCO4)[C@@H]3[C@H]2c2cc4c(cc2C[C@@H]3O)OCO4)Cc2c(ccc3c2OCO3)[C@@H]2[C@H]1c1cc3c(cc1C[C@@H]2O)OCO3`, the figure is 4; as for `CCCC(=O)N(C)C(=O)Oc1cccc2c1OC(C)(C)O2`, 4; as for `FC(F)(Cl)Cl`, 4. `O=CC1=C(C(Cl)(Cl)Cl)C(Cl)(Cl)C(O)C1(Cl)Cl` (configuration not stated) registered a GHS category of 4. The figure for `CCCCCCCC/C=C\CCCCCCCC(=O)OC[C@H](O)[C@H]1OC[C@H](OC(=O)CCCCCCC/C=C\CCCCCCCC)[C@H]1OC(=O)CCCCCCC/C=C\CCCCCCCC` is 5. As for `COc1ccccc1OCCNCC(O)COc1cccc2[nH]c3ccccc3c12` (configuration not stated), the figure is 5; as for `Nc1c(Oc2ccccc2)cc(O)c2c1C(=O)c1ccccc1C2=O`, 5; as for `N#CNC1=NCCS1`, 4.

Regarding `CNC(=O)Oc1cccc2c1OC1(CCCCC1)O2`, the GHS category was found to be 3.

In turn, `CCN(CCCSc1nnnn1C)C(=O)C1CCCC1` registered a GHS category of 4. As for `COc1ccc([C@@H]2Sc3ccccc3NC(=O)[C@@H]2O)cc1`, the figure is 5. As for `CNCC(O)CO` (configuration not stated), the figure is 5; as for `CCCCCCCCCCCCCCCCCCCC`, 5. As for `NC[C@H]1O[C@H](O[C@H]2[C@H](O)[C@@H](O[C@H]3O[C@H](CO)[C@@H](O)[C@H](N)[C@H]3O)[C@H](N)C[C@@H]2N)[C@H](O)[C@@H](O)[C@@H]1O`, the figure is 5; as for `CC(C)COP(O)(=S)OCC(C)C`, 5; as for `CCN(CCCSc1nnnn1C)C(=O)C1CCCCC1`, 4. As for `CN(CCCN1c2ccccc2CCc2ccccc21)CC(=O)c1ccc(Cl)cc1`, the GHS category turned out to be 4.

In the case of `CCOC(=O)c1sc(-c2ccc(OCC(C)C)c(C=O)c2)nc1C`, the GHS category was 5. `O=C1c2ccccc2C(=O)c2c(NCCO)ccc(NCCO)c21` displayed a GHS category of 5. As for `O=C1NC(=O)c2ccc3c4ccc5c6c(ccc(c7ccc1c2c73)c64)C(=O)NC5=O`, the figure is 5. In the case of `CCC(=O)OC1CC(=O)OC(C)CC=CC=CC(OC(C)=O)C(C)CC(CC=O)C(OC2OC(C)C(OC3CC(C)(OC(C)=O)C(OC(=O)CC)C(C)O3)C(N(C)C)C2O)C1OC` (configuration not stated), the GHS category is reported as 5.

As to `COc1ccc(N(CCCC(=O)O)C(=O)c2ccc(Cl)cc2)c(OC)c1`, the GHS category is recorded as 4. The figure for `CC(C)C1OCCN1CCO` (configuration not stated) is 4. As for `COc1cc(C(=O)OCCOCCN2CCN(C(c3ccccc3)c3ccc(Cl)cc3)CC2)cc(OC)c1OC` (configuration not stated), the figure is 5; as for `O=C(O)C(O)C(O)C(O)C(O)C(O)CO` (configuration not stated), 5. The figure for `CCc1cccc(C)c1Nc1ccc(Nc2c(C)cccc2CC)c2c1C(=O)c1ccccc1C2=O` is 5; for `C=C(C)C(=O)NC(C)C` it is 5; for `CCNc1nc(Nc2ccccc2)nc(Nc2ccc(C=Cc3ccc(Nc4nc(NCC)nc(Nc5ccccc5)n4)cc3S(=O)(=O)O)c(S(=O)(=O)O)c2)n1` it is 5. Consider `CCCC(C)c1ccc(OCC(=O)Cl)c(C(C)CCC)c1` (configuration not stated), for which the GHS category came out at 5. As for `CC(C)Cc1ccc2cc(CC(=O)O)ccc2c1`, the figure is 4; as for `O=C1c2ccc(Oc3ccc(Cl)cc3)cc2C(=O)N1Cc1cccnc1`, 5.

The molecule `CCCCN1CCCC1=O` registered a GHS category of 4. With `CC1=C(C/C=C(\C)CCC[C@H](C)CCC[C@H](C)CCCC(C)C)C(=O)c2ccccc2C1=O`, the GHS category is 5. The figure for `O=C(O)c1ccc2ccccc2c1` is 5.

`COC(=O)[C@H](Cc1ccccc1)NC(=O)[C@@H](N)CC(=O)O` (H-Asp-Phe-OMe) gave a GHS category of 5.

With `FC(F)(F)c1cccc(N2CCc3ccccc3C2c2ccccc2)c1` (configuration not stated), the GHS category amounted to 4. Molecule `Fc1ccc(Oc2ccnc3cc(Cl)cc(Cl)c23)cc1` had a GHS category of 5.

In turn, `COC(Cn1cncn1)(OC)c1cc2ccccc2o1` showed a GHS category of 4. The figure for `CN1C(=O)COc2cc(C(=O)C=Cc3ccc(Cl)cc3)ccc21` is 5. As for `C[Si](C)(C)O[Si](C)(C)O[Si](C)(C)C`, the figure is 5.

For the origin of these results see the CATMoS acute toxicity set (Mansouri et al. 2021).
